Test results taken from patent US8232289B2, “Spiropiperidine compounds as ORL-1 receptor antagonists” (Eli Lilly and Company, priority 2009, dated 2012).
Where two headings read alike, the source gives them in different places. Marks after values point to notes of the source that are not given here.

Legend:
human ORL1 receptors = target: T1, human ORL1 receptors (Homo sapiens, UniProt P41146); assay: [3H]-OFQ/nociceptin receptor binding assay
T1 construct: expressed in transfected cells; host or cells: CHO cells (membranes)
Protocol: Radioligand binding assays are commonly used to determine the affinity (Ki) or potency of a compound to bind to a particular receptor or target protein. A filtration-based [3H]-OFQ/nociceptin receptor binding assay is developed based on previous assay formats (Ardati A, Henningsen R A, Higelin J, Reinscheid R K, Civelli O, Monsma F J Jr. Mol. Pharmacol. 1997 May; 51(5):816-24.) with minor modifications. [3H]-OFQ/nociceptin binding assays are carried out in deep-well 96-well plates. [^3H]OFQ (final assay concentration 0.2 nM) competition studies are carried out with 5-10 μg of membrane protein (isolated from Chinese hamster ovary cells (CHO cells) expressing cloned human ORL1 receptors) in a final assay volume of 0.5 mL of buffer containing 20 mM HEPES, pH 7.4, 5 mM MgCl2, 1 mM EGTA, 100 mM NaCl, 0.1% bovine serum albumin. Samples are incubated for 60 min. at room temperature, which is found to be optimal for competition assays. The assays are terminated by filtration through glass fiber filters (Wallac filtermat A) [pretreated with 0.3% polyethylenimine (Sigma) for 1 hr] on a Tometc cell harvester, and the filters are washed three times with 5 mL of ice-cold 50 mM Tris.HCl, pH 7.4. Filtermats are then dried and imbedded with Meltilex scintillant A and the radioactivity counted in a Wallac Microbeta scintillation counter. Specific binding is determined by displacement with 100 nM unlabeled nociceptin. Curves are plotted as the percent of specific binding and IC50 values are determined using a sigmoidal dose response curve with variable slope. Ki values are calculated from the IC50 by the equation of Cheng and Prusoff (Cheng, Y. C., and Prusoff, W. H., Biochem. Pharmacol. 22, 3099-3108 (1973)) where Ki=IC50×(1+D×Kd^−1)^−1.

Mu Opioid = Mu Opioid (Homo sapiens, UniProt P35372); assay: Radioligand binding selectivity, Mu Opioid
Text: (§1) Similarly, Ki for the mu, kappa and delta opioids, serotonin, dopamine, adrenergic, mucarinic, and histamine receptors, as well as binding to the norepinephrine transporter, sodium channel, chloride channel, and calcium channel may be determined using membranes expressing the desired receptor/transporter/channels and appropriate corresponding radioligand competitor molecules.

Delta Opioid = Delta Opioid (Homo sapiens, UniProt P41143); assay: Radioligand binding selectivity, Delta Opioid
Text: as §1

[1] = target: T2, human ERG (hERG) K+ channel (Homo sapiens, UniProt Q12809); assay: hERG channel [3H]astemizole binding assay
T2 construct: host or cells: HEK293 cells
Protocol: Blockade of K^+-channel conductance in the heart is associated with cardiotoxicity in the form of QT-wave prolongation. The affinity (K) of the exemplified nociceptin receptor antagonists for the human ERG (hERG) K^+ channel is determined in HEK293 cells expressing cloned hERG using the hERG channel antagonist radioligand [3H]astemizole (2 nM final assay concentration) according to well known procedures (see for example Finlayson K, et al. (Eur J Pharmacol. 412(3):203-12, 2001) [3H]Astemizole binding assays are performed at the contract research company Cerep (Paris France) according to standard procedures.

male NIH-Swiss mice = assay: Forced-swim test in mice (mFST); format: in vivo; details: for ED60 in mFST: immobilization time; for maximum effect, reduction in immobilization time: mouse, in vivo
Text: mFST is an established in vivo assay for antidepressant activity (Li et al. J Pharmacol Exp Ther. 319(1):254-9, 2006.). […] The mFST was used to evaluate potential antidepressant-like activity of novel nociceptin/ORL1 antagonists according to previously published methods (Li et al. J Pharmacol Exp Ther. 319(1):254-9, 2006.). Briefly, male NIH-Swiss mice (Harlan Sprague-Dawley, Indianapolis, Ind.) weighing between 25-30 g are used. Group housed animals are removed from the vivarium to the testing area in their own cages and allowed to adapt to the new environment for at least 1 hour before testing. Alternatively, male 129S6 wild type and nociceptin/ORL1 receptor knockout mice were used to confirm dependence of the response to compound was nociceptin/ORL1 receptor dependent. All compounds are prepared in 20% Captisol, 25 mM phosphate buffer, pH 2.0 on the day of use. Mice are placed in a cylinder (diameter: 10 cm; height: 25 cm) filled with 6 cm of water (22-25° C.) for 6 min. The duration of immobility during the last 4 min. of the 6 min. period of the test was scored. A mouse is recorded as immobile when floating motionless or making only those movements necessary to keep its head above water.

T1 sequence (P41146 whole entry): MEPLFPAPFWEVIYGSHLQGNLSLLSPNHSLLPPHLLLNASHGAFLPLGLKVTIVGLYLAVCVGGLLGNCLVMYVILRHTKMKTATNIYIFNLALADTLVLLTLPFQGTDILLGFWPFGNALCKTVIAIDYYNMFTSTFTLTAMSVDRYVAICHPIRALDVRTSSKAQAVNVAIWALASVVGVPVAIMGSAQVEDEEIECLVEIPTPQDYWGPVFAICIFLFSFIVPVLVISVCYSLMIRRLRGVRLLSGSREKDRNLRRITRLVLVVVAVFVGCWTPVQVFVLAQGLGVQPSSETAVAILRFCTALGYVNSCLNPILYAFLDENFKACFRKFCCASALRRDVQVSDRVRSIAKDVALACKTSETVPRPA
T2 sequence (Q12809 whole entry): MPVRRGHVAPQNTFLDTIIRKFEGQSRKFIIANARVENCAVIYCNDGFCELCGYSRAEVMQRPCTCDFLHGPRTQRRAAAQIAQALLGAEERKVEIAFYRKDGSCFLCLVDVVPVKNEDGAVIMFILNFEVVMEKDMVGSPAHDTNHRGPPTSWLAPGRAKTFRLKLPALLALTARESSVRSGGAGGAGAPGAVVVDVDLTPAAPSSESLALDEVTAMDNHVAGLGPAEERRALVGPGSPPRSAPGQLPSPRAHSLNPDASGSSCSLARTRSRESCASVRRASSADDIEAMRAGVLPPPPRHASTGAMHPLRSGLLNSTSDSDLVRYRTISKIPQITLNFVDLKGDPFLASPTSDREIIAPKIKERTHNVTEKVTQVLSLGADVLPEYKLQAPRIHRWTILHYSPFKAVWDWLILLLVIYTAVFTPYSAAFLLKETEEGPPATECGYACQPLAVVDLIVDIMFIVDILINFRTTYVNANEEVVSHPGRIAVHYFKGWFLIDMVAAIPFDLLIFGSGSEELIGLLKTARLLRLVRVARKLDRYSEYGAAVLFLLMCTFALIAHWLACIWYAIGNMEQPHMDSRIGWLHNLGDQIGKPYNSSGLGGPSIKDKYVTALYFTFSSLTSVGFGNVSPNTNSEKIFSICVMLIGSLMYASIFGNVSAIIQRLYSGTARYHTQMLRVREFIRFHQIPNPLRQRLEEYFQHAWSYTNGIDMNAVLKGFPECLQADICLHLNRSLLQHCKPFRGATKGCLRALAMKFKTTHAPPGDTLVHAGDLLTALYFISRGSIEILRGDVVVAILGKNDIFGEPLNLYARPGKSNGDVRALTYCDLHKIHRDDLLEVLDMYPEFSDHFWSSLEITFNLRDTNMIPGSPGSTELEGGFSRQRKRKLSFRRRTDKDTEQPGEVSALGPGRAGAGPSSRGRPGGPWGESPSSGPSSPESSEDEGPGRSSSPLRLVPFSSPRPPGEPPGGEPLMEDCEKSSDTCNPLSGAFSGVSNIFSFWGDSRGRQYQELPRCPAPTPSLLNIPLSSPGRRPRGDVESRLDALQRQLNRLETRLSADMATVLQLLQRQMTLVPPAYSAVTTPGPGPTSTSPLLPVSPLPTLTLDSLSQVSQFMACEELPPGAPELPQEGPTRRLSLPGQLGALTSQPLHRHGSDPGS
Sequence of Mu Opioid (P35372 whole entry): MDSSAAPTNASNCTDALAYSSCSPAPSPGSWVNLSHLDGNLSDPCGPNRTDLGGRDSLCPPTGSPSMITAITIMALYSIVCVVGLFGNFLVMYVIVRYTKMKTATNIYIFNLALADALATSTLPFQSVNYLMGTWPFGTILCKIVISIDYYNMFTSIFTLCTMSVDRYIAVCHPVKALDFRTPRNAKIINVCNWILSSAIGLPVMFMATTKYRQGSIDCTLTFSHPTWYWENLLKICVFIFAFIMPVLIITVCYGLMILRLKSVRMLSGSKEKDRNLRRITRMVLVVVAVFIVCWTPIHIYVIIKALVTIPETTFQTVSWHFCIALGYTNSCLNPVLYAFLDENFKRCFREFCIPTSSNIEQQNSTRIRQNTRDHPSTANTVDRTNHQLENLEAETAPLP
Sequence of Delta Opioid (P41143 whole entry): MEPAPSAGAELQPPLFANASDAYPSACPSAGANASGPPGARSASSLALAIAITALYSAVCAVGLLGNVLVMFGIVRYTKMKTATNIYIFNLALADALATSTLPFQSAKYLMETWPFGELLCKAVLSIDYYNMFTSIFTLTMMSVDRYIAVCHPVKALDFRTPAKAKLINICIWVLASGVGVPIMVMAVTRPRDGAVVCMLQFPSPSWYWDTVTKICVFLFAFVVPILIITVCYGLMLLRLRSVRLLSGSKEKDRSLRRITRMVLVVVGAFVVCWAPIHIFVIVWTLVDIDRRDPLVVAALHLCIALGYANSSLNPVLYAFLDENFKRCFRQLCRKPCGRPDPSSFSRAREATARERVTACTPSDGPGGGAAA

Row | Compound | Ki (human ORL1 receptors) | Ki (Mu Opioid) | Ki (Delta Opioid) | Ki [1] | ED60 in mFST (male NIH-Swiss mice) | maximum effect, reduction in immobilization time (male NIH-Swiss mice) | Ki (human ORL1 receptors; [3H]OFQ 0.2 nM, CHO cell membranes, read-out: Ki ORL-1) | Ki (Mu Opioid; read-out: Ki Mu Opioid) | Ki (Delta Opioid; read-out: Ki Delta Opioid) | Ki ([1]; HEK293 cells expressing cloned hERG, [3H]astemizole 2 nM, read-out: Ki hERG K+ channel) | Immobilization Time (male NIH-Swiss mice; 3 mg/Kg Ex. 62 + 10 mg/Kg fluoxetine) | Immobilization Time (male NIH-Swiss mice; 3 mg/Kg, alone) | Immobilization Time (male NIH-Swiss mice; 10 mg/Kg Ex. 62 + 10 mg/Kg fluoxetine) | Immobilization Time (male NIH-Swiss mice; 10 mg/Kg, alone) | effect on immobilization time in combination with fluoxetine (male NIH-Swiss mice; in combination with 10 mg/kg fluoxetine)
1 | O=C(O)C(O)C(O)C(=O)O.OCc1nn(-c2ncccc2F)cc1CN1CCC2(CC1)OCC(F)(F)c1cc(Cl)sc12 [Example 53, [4-[(2-Chloro-4,4-difluoro-spiro[5H-thieno[2,3-c]pyran-7,4′-piperidine]-1′-yl)methyl]-1-(3-fluoro-2-pyridyl)pyrazol-3-yl]methanol (L)-Tartrate] | 0.45 nM | > 451 nM | > 479 nM | 8600 nM | 12.9 mg/kg | 54% |  |  |  |  |  |  |  |  | 
2 | Cc1nn(-c2ncccc2Cn2cccn2)cc1CN1CCC2(CC1)OCC(F)(F)c1cc(Cl)sc12.O=C(O)C(O)C(O)C(=O)O [Example 23, 2-Chloro-4,4-difluoro-1′-[[3-methyl-1-[3-(pyrazol-1-ylmethyl)-2-pyridyl]pyrazol-4-yl]methyl]spiro[5H-thieno[2,3-c]pyran-7,4′-piperidine] (L)-Tartrate] | 0.79 nM | > 451 nM | > 479 nM | 1210 nM | 9.5 mg/kg | 58% |  |  |  |  |  |  |  |  | 
3 | Cc1nn(-c2ncccc2CO)cc1CN1CCC2(CC1)OCC(F)(F)c1cc(Cl)sc12 [Example 62, [2-[4-[(2-Chloro-4,4-difluoro-spiro[5H-thieno[2,3-c]pyran-7,4′-piperidine]-1′-yl)methyl]-3-methyl-pyrazol-1-yl]-3-pyridyl]methanol] |  |  |  |  | 24.9 mg/kg | 45% | 0.18 nM | > 451 nM | > 479 nM | 6080 nM | 97* sec | 163 s | 85* sec | 129 s | significantly further reduce immobilization time over either fluoxetine or the compound of Example 62 alone
